In patent publication US10046082B2, “Collagen sponge containing a drug for promoting fracture healing and method for preparing the same” (WUHAN VSD MEDICAL SCIENCE & TECHNOLOGY CO., LTD., priority 2015, dated 2018):
Marks after values point to notes of the source that are not given here.

Assays:
[1] = tested on: fracture sites; experiment: Callus cross-sectional area in rabbit fracture healing experiment; assay type: in vivo, New Zealand rabbits; details: sponge placed at fracture site (IB group: 0.1 mg/kg IB after surgery), n=5
Description: (§1) 1.1. Experimental Animal: New Zealand rabbits, each being male and having a weight of about 2 to 3 kg (12 to 16 weeks old) were used
(§2) 1.2. Experimental Grouping and Materials: experiments were divided into a control group (Control), a collagen sponge (CS) group, an ibandronate sodium (0.1 mg/kg IB) group, a group with a small dosage of ibandronate sodium+collagen sponge (SIB+CS, 0.125 mg IB), a group with a median dosage of ibandronte sodium+collagen sponge (MIB+CS, 0.25 mg IB), and a group with a large dosage of ibandronate sodium+collagen sponge (LIB+CS, 0.5 mg IB), in total 6 groups. 10 experimental animals are used for each group, […].
(§3) Preparation of materials for the SIB+CS group: 125 μl of 1 mg/ml IB was added into 600 ml of the enzymolysis solution of collagen to prepare a 50*25*5 mm collagen sponge;
(§4) Preparation of materials for the MIB+CS group: 250 μl of 1 mg/ml IB was added into 600 ml of the enzymolysis solution of collagen to prepare a 50*25*5 mm collagen sponge;
(§5) Preparation of materials for the LIB+CS group: 500 μl of 1 mg/ml IB was added into 600 ml of the enzymolysis solution of collagen to prepare a 50*25*5 mm collagen sponge.
Male New Zealand rabbits were anesthetized by marginal ear vein injection with sodium pentobarbital (3%, […]). After the anesthesia, the skin in the surgical area was depilated with 8% sodium sulfide and disinfected. […]

[2] = tested on: tibia fracture sites of the rabbits; experiment: Three-point bending force test at fracture sites of the rabbits; assay type: in vivo, New Zealand rabbits; details: n=5
Description: as §1, §2, §3, §4, §5
Male New Zealand rabbits were anesthetized by marginal ear vein injection with sodium pentobarbital (3%, […]). After the anesthesia, the skin in the surgical area was depilated with 8% sodium sulfide and disinfected. The animals were fixed on their backs, and disinfected and covered with a sterile towel or sheet. A longitudinal incision was cut at the distal femur of the right leg near the patella. The patella was retracted to expose the inner and outer condyles of the distal femur. A 2 mm Kirschner wire was inserted retrogradely between the inner and outer condyles through an electric drill. The Kirschner wire went through the medullary cavity and came out of the skin from the proximal femur. The distal end of the Kirschner wire was cut off and ensured to be embedded under the surface of the knee joint. The knee was reset. An incision was made on the outer side of the distal femur, and the femur was exposed along the intermuscular space. Sufficient protection was provided for the surrounding soft tissues such as muscles and blood vessels. The femur was cut by a dental drill. The Control group and the IB group were not subjected to any treatment. The prepared materials for the CS group, the SIB+CS group, the MIB+CS group and the LIB+CS group were placed at the fracture sites of the animals, respectively. The incisions and the skin were washed with sterile normal saline and sutured with 5-0 nylon thread. Normal saline (0.1 ml/kg) and ibandronate sodium (0.1 ml/kg) were administered to the Control group and the IB group after surgery, respectively. All the animals were injected intramuscularly with buprenorphine (0.05 mg/kg) twice and with ciprofloxacin (10 mg/kg) once a day for 3 days after the surgery. All the animals were fed normally (lightless, quiet, at a temperature from 20 to 26° C., and at a humidity below 80%). X-ray photographs were taken on the day of surgery to check the condition of fracture apposition and alignment after the surgery. Further, half of the New Zealand rabbits were sacrificed at the 2nd week and the 4th week for detection, respectively.
3.2. Three-point bending force test at tibia fracture sites of the rabbits at the second week and the fourth week

## CCCCCN(C)CCC(O)(P(=O)(O)O)P(=O)(O)O [IB, ibandronate sodium]
[1]; 2nd week after surgery
  callus cross-sectional area (CSA): 89.9 ± 3.6^a,h,i,j,k mm^2
[1]; 4th week after surgery
  callus cross-sectional area (CSA): 120.5 ± 7.8^a,h,i,j,k mm^2
[2]; 2nd week
  Compressive Strength: 4.7 ± 1.8 Nmm
  Elastic Modulus: 7.3 ± 2.2 MPa
  Limit Load: 6.8 ± 1.7 N
[2]; 4th week
  Compressive Strength: 64.6 ± 7.3^j Nmm
  Elastic Modulus: 88.2 ± 19.5 MPa
  Limit Load: 95.9 ± 7.04^i,j N
